Assay results as given in ChEMBL document CHEMBL3301361, “Experimental in vitro DMPK and physicochemical data on a set of publicly disclosed compounds”.
Converted amounts (≈) assume the structure as drawn.

Experiments:
in vitro = details: human, plasma
physchem [1] = details: octan-1-ol/water
physchem [2] = details: pH 7.4 buffer

Structure (SMILES)	fraction unbound at 5 h (in vitro; PPB)	also measured
CC(=O)NCc1cccc(C(=O)O)c1	0.17	
C=CC1(C)CC(=O)C2(O)C(C)(O1)C(OC(C)=O)C(O)C1C(C)(C)CCC(O)C12C (stereo not drawn)	0.16	
COc1cnc(-c2ccccn2)nc1N(C)C	0.163	
CC(=O)S[C@@H]1CC2=CC(=O)CC[C@]2(C)C2CC[C@@]3(C)C(CC[C@@]34CCC(=O)O4)C21 (stereo partly drawn)	0.24	
NC(=O)c1cccc2c3c([nH]c12)CCCC3	0.28	
O=C(Cc1cccs1)Nc1ccon1	0.563	
Cc1ccc(CNC(=O)CCS(=O)(=O)c2ccc(Br)cc2)cc1		fraction unbound at 5 h (in vitro): 0.013
CN1CCN2c3ccccc3CC3(C(=O)N(C)C(=O)N(C)C3=O)C2C1 (stereo not drawn)		fraction unbound at 5 h (in vitro): 0.035
Cc1ccc(Cl)cc1NC(=O)CCS(=O)(=O)c1ccc(Br)s1		fraction unbound at 5 h (in vitro): 0.0111
O=C(CCS(=O)(=O)c1ccc(Br)cc1)Nc1ccc2c(c1)OCO2		fraction unbound at 5 h (in vitro): 0.0119
COc1cc(/C=C2\SC(=O)NC2=O)ccc1Oc1ccc(C#N)cc1C(F)(F)F		fraction unbound at 5 h (in vitro): 0.0005
Nc1nc(OCC2CCC2)nc2c1ncn2[C@@H]1O[C@H](CF)[C@@H](O)[C@H]1O	0.228	
C[C@H]1O[C@@H](n2cnc3c(N)nc(OCC4CC45CC5)nc32)[C@H](O)[C@@H]1O (stereo partly drawn)	0.249	
O=C1COc2ccc(CNC3CCN(CCN4C(=O)COc5ccc([N+](=O)[O-])cc54)CC3)nc2N1		fraction unbound at 5 h (in vitro): 0.249
CC(C(=O)OC1CC[N+](C)(C)CC1)(c1ccccc1)N1CCCCC1 (stereo not drawn)	0.78	
CN[C@@H](C)C(=O)N[C@H](C(=O)N[C@H]1CCN(CCCc2ccccc2)C1)C1CCCCC1	0.36	
CN[C@@H](C)C(=O)N[C@H](C(=O)N[C@H]1CCCCN(CCc2ccccc2)C1)C1CCCCC1	0.262	
COc1cc(OC)c(S(=O)(=O)N2c3ccccc3CCC2C)cc1NC(=S)NCC(=O)O (stereo not drawn)	0.309	
COc1cc(OC)c(S(=O)(=O)N2c3ccccc3CCC2C)cc1NC(=O)NCC(=O)O (stereo not drawn)	0.28	
COc1cc(OC)c(S(=O)(=O)N2c3ccccc3CCC2C)cc1NC(=O)COCC(=O)O (stereo not drawn)	0.266	
COc1cc(OC)c(S(=O)(=O)N2c3ccccc3CCC2C)cc1NC(=O)CCC(=O)O (stereo not drawn)	0.186	
COc1cc(OC)c(S(=O)(=O)N2c3ccccc3CCC2C)cc1NC(=O)CSCC(=O)O (stereo not drawn)	0.126	
COc1cc(OC)c(S(=O)(=O)NCc2ccccc2N2CCC(CO)CC2)cc1NC(C)=O	0.126	
COc1cc(OC)c(S(=O)(=O)NCc2ccccc2N2CCC(CO)CC2)cc1NC(=O)CCC(=O)O	0.403	
COc1cc(OC)c(S(=O)(=O)NCc2ccccc2N2CCC(COC(=O)CCC(=O)O)CC2)cc1NC(=O)CCC(=O)O	0.151	

Structure (SMILES)	fraction unbound at 5 h (in vitro; PPB)	also measured
COc1cc(OC)c(S(=O)(=O)NCc2ccccc2N2CCC(C(=O)O)CC2)cc1NC(=O)CCC(=O)O	0.194	
O=c1cc(N2CCOCC2)nc2n(Cc3cccc(F)c3)ccn12	0.22	
NC(=O)[C@H](Cc1ccccc1)NC(=O)OCc1ccccc1	0.19	
CC(C)NC(=O)c1cc2c(-n3ccc(C(F)(F)F)n3)c(-c3cncc(C(=O)O)c3)cnc2[nH]1	0.228	
CCNC(=O)c1cc2c(-n3nc(C(F)(F)F)cc3C)c(-c3cncc(C(=O)O)c3)cnc2[nH]1	0.454	
CCNC(=O)c1cc2c(-n3ccc(C(F)(F)F)n3)c(-c3cncc(C(N)=O)c3)cnc2[nH]1	0.36	
CCNC(=O)c1cc2c(-n3ccc(C(F)(F)F)n3)c(-c3cncc(C(=O)NC)c3)cnc2[nH]1	0.148	
COc1cnc(-c2ccccn2)nc1N1CCOCC1	0.339	
N=C(N)c1ccc(CNC(=O)C2(NC(=O)[C@H](NCC(=O)O)C3CCCCC3)Cc3ccccc3C2)cc1	0.54	
COc1ccc2ncc(=O)n(CCN3CC[C@H](NCc4cc5c(cn4)OCCO5)[C@H](O)C3)c2c1	0.194	
COc1ccc2ncc(=O)n(CCN3CC[C@@H](NCc4cc5c(cn4)OCCO5)[C@@H](O)C3)c2c1	0.142	
COc1ccc2ncc(=O)n(CCN3CC[C@@H](NCc4cc5c(cn4)OCCO5)[C@H](O)C3)c2c1	0.179	
COc1ccc2ncc(=O)n(CCN3CC[C@@H](NCc4ccc5c(n4)NC(=O)CO5)[C@@H](OC)C3)c2c1	0.28	
COc1ccc2ncc(=O)n(CCN3CC[C@@H](NCc4ccc5c(n4)NC(=O)CO5)[C@H](OC)C3)c2c1	0.179	
COCCC(Oc1ncnc2c1cnn2-c1ccccc1OC)C(=O)Nc1ccc(C)cn1 (stereo not drawn)	0.139	
O=C1NCCc2[nH]c(-c3ccncc3)cc21	0.586	
Cc1csc(N)c1C(N)=O	0.324	
COc1ccc(-c2cc(O)nc(N)n2)cc1C#N	0.126	
CCc1[nH]c2nc(Sc3cnc4ccc[n+]([O-])c4c3)nc(N3CC[C@@H](N)C3)c2c1Cl	0.204	
NC1=NC(c2ccc(F)cc2)Cc2ccc(F)cc21 (stereo not drawn)	0.329	
O=C(O)c1cn(Cc2ccccc2)c2cc(N3CCNCC3)c(F)cc2c1=O	0.299	
CN(C)CCNc1cc(-c2ccncc2)nc2ccccc12	0.142	
O=C(NCC12CC3CC(CC(C3)C1)C2)c1cc(C(=O)N2CC3CNCC(C2)O3)ccc1Cl	0.309	
C[C@](N)(Cc1ccccc1)c1ccccc1		fraction unbound at 5 h (in vitro): 0.179
CC(C)Cc1c(C(=O)C(N)=O)c2c(OCC(=O)NS(C)(=O)=O)cccc2n1Cc1ccccc1		fraction unbound at 5 h (in vitro): 0.0251

Structure (SMILES)	fraction unbound at 5 h (in vitro; PPB)	also measured
COCCOc1cc2ncc(C(N)=O)c(Nc3ccc(F)cc3F)c2cc1N1CCN(C)CC1	0.454	
COCCOc1cc2ncc(C(N)=O)c(Nc3cc(C)ccc3F)c2cc1N1CCN(C)CC1	0.163	
CCOc1cc2ncc(C(N)=O)c(Nc3cccc(Cl)c3Cl)c2cc1N1CCN(C(=O)CO)CC1	0.163	
COCCOc1cc2ncc(C(N)=O)c(Nc3cccc(Cl)c3F)c2cc1N1CCN(C)CC1	0.392	
CCOc1cc2ncc(C(N)=O)c(Nc3ccc(F)cc3F)c2cc1N1CCCN(C)CC1	0.304	
CN1CCN(C(=O)c2cc(Cc3n[nH]c(=O)c4ccccc34)ccc2F)CC1	0.289	
NC1=NC(c2ccc(F)cc2)Cc2ccccc21 (stereo not drawn)	0.36	
NC1(c2ccc(-c3nc4ccn5c(=O)[nH]nc5c4cc3-c3ccccc3)cc2)CCC1 [MK-2206]		logD (physchem [1]; pH 7.4, LogD7.4): 2.5; solubility thermodynamic (physchem [2]): 4.7 µM (≈ 1.92 µg/mL)
Nc1ccccc1NC(=O)c1ccc(CNc2nccc(-c3cccnc3)n2)cc1 [MOCETINOSTAT]		logD (physchem [1]; pH 7.4, LogD7.4): 2.28; solubility thermodynamic (physchem [2]): 13.5 µM (≈ 5.35 µg/mL)
CCOC(=O)Nc1ccc2c(c1)N(C(=O)CCN1CCOCC1)c1ccccc1S2 [MORICIZINE]		logD (physchem [1]; pH 7.4, LogD7.4): 3.1; solubility thermodynamic (physchem [2]): 83.2 µM (≈ 35.6 µg/mL)
COc1cc2c(c(OC)c1OC)-c1ccc(O)cc1[C@@H](NC(C)=O)CC2 [N-ACETYLCOLCHINOL]		logD (physchem [1]; pH 7.4): 1.81; solubility thermodynamic (physchem [2]): 813 µM (≈ 290 µg/mL)
COC(=O)C1=C(C)NC(C)=C(C(=O)OCC(C)C)C1c1ccccc1[N+](=O)[O-] (stereo not drawn) [NISOLDIPINE]		logD (physchem [1]; pH 7.4, LogD7.4): 3.59; solubility thermodynamic (physchem [2]): 2.2 µM (≈ 0.855 µg/mL)
NC(=O)c1c(OCc2c(F)cc(Br)cc2F)nsc1NC(=O)NCCCCN1CCCC1 [OSI-632]		logD (physchem [1]; pH 7.4, LogD7.4): 2.5; solubility thermodynamic (physchem [2]): 77.6 µM (≈ 41.3 µg/mL)
COc1ccc(Cc2nccc3cc(OC)c(OC)cc23)cc1OC [PAPAVERINE]		logD (physchem [1]; pH 7.4): 2.81; solubility thermodynamic (physchem [2]): 38 µM (≈ 12.9 µg/mL)
Nc1ncnc2c1C(=O)N(c1ccc([C@H]3CC[C@H](CC(=O)O)CC3)cc1)CCO2 [PF-04620110]		logD (physchem [1]; pH 7.4, LogD7.4): -0.5; solubility thermodynamic (physchem [2]): 759 µM (≈ 301 µg/mL)
CCc1cccc(CC)c1NC(=O)N1Cc2n[nH]c(NC(=O)c3ccc(N4CCN(C)CC4)cc3)c2C1 [PHA-680632]		logD (physchem [1]; pH 7.4, LogD7.4): 3.31; solubility thermodynamic (physchem [2]): 107 µM (≈ 53.8 µg/mL)
CCc1ccc(CCOc2ccc(CC3SC(=O)NC3=O)cc2)nc1 (stereo not drawn) [PIOGLITAZONE]		logD (physchem [1]; pH 7.4, LogD7.4): 2.8; solubility thermodynamic (physchem [2]): 2 µM (≈ 0.713 µg/mL)
CC(=O)[C@H]1CC[C@H]2[C@@H]3CCC4=CC(=O)CC[C@]4(C)[C@H]3CC[C@]12C [PROGESTERONE]		logD (physchem [1]; pH 7.4): 3.94; solubility thermodynamic (physchem [2]): 37.2 µM (≈ 11.7 µg/mL)
Cn1c(=O)c(Oc2ccc(F)cc2F)cc2cnc(NC3CCOCC3)nc21 [R-1487]		logD (physchem [1]; pH 7.4, LogD7.4): 2.76; solubility thermodynamic (physchem [2]): 20.4 µM (≈ 7.92 µg/mL)
O=C(CO)N1CCC(c2[nH]nc(-c3ccc(Cl)cc3)c2-c2ccncn2)CC1 [SD-0006]		logD (physchem [1]; pH 7.4, LogD7.4): 1.85; solubility thermodynamic (physchem [2]): 60.3 µM (≈ 24 µg/mL)
CC(=O)Nc1ccc(C(=O)Nc2ccccc2N)cc1 [TACEDINALINE]		logD (physchem [1]; pH 7.4, LogD7.4): 0.82; solubility thermodynamic (physchem [2]): 631 µM (≈ 170 µg/mL)
C[C@@H]1CN(Cc2ccc(F)cc2)[C@@H](C)CN1C(=O)c1cc2c(C(=O)C(=O)N(C)C)cn(C)c2cc1Cl [TALMAPIMOD]		logD (physchem [1]; pH 7.4): 3.6; solubility thermodynamic (physchem [2]): 52.5 µM (≈ 26.9 µg/mL)
Cn1c(C#N)ccc1-c1ccc2c(c1)C(C)(C)OC(=S)N2 [TANAPROGET]		logD (physchem [1]; pH 7.4, LogD7.4): 3.4; solubility thermodynamic (physchem [2]): 3.6 µM (≈ 1.07 µg/mL)
COC1(c2cc(F)cc(OCc3ccc4c(ccc(=O)n4C)c3)c2)CCOCC1 [ZD-2138]		logD (physchem [1]; pH 7.4, LogD7.4): 3.52; solubility thermodynamic (physchem [2]): 3.2 µM (≈ 1.27 µg/mL)
FC(F)c1nc2ccccc2n1-c1nc(N2CCOCC2)nc(N2CCOCC2)n1 [ZSTK-474]		logD (physchem [1]; pH 7.4, LogD7.4): 3.04; solubility thermodynamic (physchem [2]): 0.7 µM (≈ 0.292 µg/mL)
